Earlier results, collected in patent US20070232672A1, “Pharmaceutical Composition And Method For Treating Neurodegenerative Disorders” (Myriad Genetics, Incorporated, priority 2004, published 2007).
Where two headings read alike, the source gives them in different places.

Legend:
[1] = for efficacy for treating AD: clinical trial (Aisen et al., Reines et al.), rofecoxib at 25 mg daily
Aβ42 [2] = conditions: transgenic mouse model, Koo et al.
Aβ42 [3] = conditions: CHO cells, Koo et al.
[4] = 50 mg and 100 mg doses, human subjects, Lotsch et al.
[5] = Scali et al.
[6] = patients having mild cognitive impairment

For COc1ccc2cc([C@H](C)C(=O)O)ccc2c1 [Naproxen], the “efficacy for treating AD” value [1] is given as “failed to show efficacy”.
In the case of CC12CC3CC(C)(C1)CC(N)(C3)C2 [memantine], the “efficacy in treating mild-to-moderate AD” value ([1]; mild-to-moderate AD) is given as “showed efficacy”.
For C[C@@H](C(=O)O)c1ccc(-c2ccccc2)c(F)c1 [(R)-2-(2-fluoro-4-biphenylyl)propionic acid], the “inhibition of COX activity” value (COX) is listed as “negligibly inhibits COX activity”, the Aβ42 lowering (Aβ42 [2]) is listed as “lower Aβ42” and the Aβ42 lowering (Aβ42 [3]) is listed as “lower Aβ42”. For the same compound, the analgesic effect [4] was “produced an analgesic effect”.
In the case of CS(=O)(=O)c1ccc(C2=C(c3ccccc3)C(=O)OC2)cc1 [rofecoxib], the neuroprotection [5] is listed as “provides neuroprotection”, the “prevention of the development of Alzheimer's disease” value ([6]; large prevention trial) is listed as “failed to prevent the development of Alzheimer's disease” and the “patients who developed AD” value ([6]; placebo 4.5%) is listed as 6.4%. The “efficacy for treating AD” value [1] was “failed to show efficacy”.
